Experimental data published in US8242240B2, “Anti-inflammatory compounds and uses thereof” (Yale University, priority 2000, dated 2012).

Legend:
E-selectin = E-selectin expression in primary HUVEC (FACS); assay type: cell-based, human; conditions: for TNFα-induced expression of E-selectin: peptide 100 μM 2 h, TNFα 10 ng/ml 6 h
Description: (A) Primary HUVEC were pre-incubated for two hours with wild-typo (middle) or mutant (bottom) NBD peptides (100 μM) then stimulated with TNFα (10 ng/ml) for a further six hours. Control cells received no peptide. Cells were stained with either anti-E-selectin (H4/18) or a non-binding control antibody (K16/16) and expression was measured FACS (FACSort, Becton Dickinson). The profiles show E-selectin staining in the absence (shaded) and presence (solid line) of TNFα and control antibody staining under the sane conditions (dashed line, no TNFα; dotted line, TNFα). (B) % control release of NO2— in various samples. (C) PMA-induced ear edema in mice topically treated with either vehicle (VEH), dexamethasone (DEX) or NBD peptides was induced and measured as described in Example 8. Data are presented as mean differences in ear thickness ±SD (*=p<0.05 compared with both untreated control and vehicle). (D) The effects of the NBD peptide compared with the effect of dexamethasone (DEX) on Zymosan (ZYM)-induced peritonitis in mice were determined as described again in Example 8. Control mice were injected with phosphate-buffered saline (PBS).
Many proteins involved in the initiation and maintenance of inflammatory responses require NF-κB activation for induced expression of their genes (Ghosh et al., (1998) Annu. Rev. Immunol. 16, 225-260; May & Ghosh, (1998) Immunol. Today 19, 80-88). One such protein, E-selectin, is a leukocyte adhesion molecule expressed on the luminal surface of vascular endothelial cells after activation by pro-inflammatory stimuli such as IL-1 or TNFα (Pober et al., (1986) J. Immunol. […], 1680-1687; Bevilacqua et al., (1987) Proc. Natl. Acad. Sci. USA 84, 9238-9242; Collins et al., (1995) FASEB J. 9, 899-909). Expression of E-selectin and other NF-κB-dependent adhesion molecules is crucial for the arrest and recruitment of leukocytes into sites of acute and chronic inflammation. […]

NF-κB = assay: pBIIX-luciferase NF-κB reporter assay in HeLa cells; assay type: cell-based, human; conditions: for TNFα-induced NF-κB activation (luciferase reporter): peptide 100 and 200 μM 2 h, TNFα 10 ng/ml 4 h; for basal NF-κB activity (luciferase reporter): no TNFα
Description: (A) Sequences of wild-type (SEQ ID NO:18) and mutant (SEQ ID NO:19 forms of IKKβ NBD peptide. (B) GST-pull-down analysis was performed using either GST-NEMO-in vitro translated IKKβ (upper panel) or GST-IKKβ-(644-756)-in vitro translated NEMO (lower panel). The assay was performed in the absence (no peptide) or presence of increasing concentrations ([…], 500 or 1000 μM) of either mutant (MUT) (SEQ ID NO:19) or wild-type (WT) NBD (SEQ ID NO:18). (C) HeLa cells were incubated with either peptide (200 μM) for the times indicated. Following lysis, the IKK complex was immunoprecipitated using anti-NEMO and the resulting immunoblot probed with anti-IKKβ. (D) Gel image showing anti-NEMO immunoprecipitation. (E) Gel image showing anti-FLAG immunoblot. (F) HeLa cells were incubated for three hours with increasing concentrations: 50, 100 or 200 μM) of each peptide followed by treatment for fifteen minutes with TNFα (10 ng/ml) as indicated (+). Following lysis, nuclear extracts were made and 10 μg of protein from each sample was used for EMSA using a specific [^32P]-labeled κB-site probe. (G) Gel image showing anti-Phospho-C-Jun immunoblot and anti-β-Actin immunoblot. (H) HeLa cells were transfected for forty-eight hours with pBIIX-luciferase then incubated for two hours in the absence (control) or presence of mutant or wild-type NBD peptide (100 and 200 μM of each). Subsequently the cells were either treated with TNFα (10 ng/ml) as indicated (toe panel) or left untreated (bottom panel) for a further four hours after which NF-κB activation was measured by luciferase assay.
For transfection studies, HeLa and COS cells were seeded into either twenty-four well (1×10^5 cells/well) or six well (5×10^5 cells/well) plates and grown for twenty-four hours before transfection of DNA with FUGENE6(Roche) according to the manufacturer's protocol. Cells in twenty-four well and six well trays received a total of 1 μg or 2 μg of DNA respectively. After forty-eight hours cells were lysed with TNT (200 mM NaCl, 20 mM Tris-pH 8.0, 1% Triton-100) and the lysate were used for either immunoprecipitation or luciferase assay (Primage Luciferase Assay System).
The effects of the NBD peptides on signal-induced activation of NF-κB were investigated next. Analysis using electrophoretic mobility shift assay. […] Further, after transfecting HeLa cells with the pBIIX-luciferase reporter, cells were preincubated with wild-type or mutant peptides, treated with TNFα and NF-κB activation measured by the luciferase reporter assay. As shown in FIG. 5H (top panel), the wild-type NBD peptide inhibited TNFα-induced NF-κB activation whereas the mutant had no effect. […]

Mouse bone marrow cells = assay: RANKL-induced osteoclast differentiation of bone marrow cells; assay type: cell-based; conditions: M-CSF 20 ng/ml + RANKL 100 ng/ml, six days, peptide 6.25, 12.5 and 25 mM
From the text: Osteoporosis is a severely debilitating disease characterized by an extensive loss of bone mass that is mediated by osteoclast-dependent bone resorbtion (Suda et al., (1992) Endocr. Rev. 13, 66-80; Suda et al., (1999) Endocr. Rev. 20, 345-357). It is therefore possible that selective inhibition of NF-κB activation in osteoclast precursor cells would prevent osteoclast differentiation and provide the basis for therapeutically effective drugs for the treatment of osteoporosis. Therefore the effect of the NBD peptides on osteoclast differentiation was tested using a previously described in vitro model (Jimi et al., (1999) Exp. Cell Res. 247, 84-93). Mouse bone marrow cells plated into 48-well tissue culture trays were incubated with human macrophage-colony stimulating factor (M-CSF; 20 ng/ml) and human RANKL (100 ng/ml) for six days in the absence or presence of various concentrations ([…]) of either mutant or wild-type NBD peptide. The cells were then fixed and stained for the osteoclast phenotypic marker tartrate-resistant acid phosphatase (TRAP) and TRAP-positive mutinucleated cells containing more than three nuclei were counted as osteoclasts. Triplicate samples were counted and results were calculated as means±SD.

## [DRQIKIWFQNRRMKWKK]TALDASALQTE (DRQIKIWFQNRRMKWKKTALDASALQTE; Description of Artificial Sequence: Synthetic Mutant NBD peptide) [identical to wild-type NBD peptide except W739 and W741 mutated to alanine, reference compound]
E-selectin
  TNFα-induced expression of E-selectin: not
NF-κB
  TNFα-induced NF-κB activation (luciferase reporter): no effect
Mouse bone marrow cells
  inhibition of osteoclast differentiation (TRAP-positive multinucleated cells): not

## [DRQIKIWFQNRRMKWKK]TALDWSWLQTE (DRQIKIWFQNRRMKWKKTALDWSWLQTE; Description of Unknown: Unknown wildtype NBD peptide) [wild-type NBD peptide]
E-selectin; peptide 100 μM
  E-selectin expression in the absence of TNFα: induced low level expression
E-selectin
  TNFα-induced expression of E-selectin: significantly reduced
NF-κB; listed as cell-permeable NBD peptide
  basal NF-κB activity (luciferase reporter): modest increase
NF-κB; listed as wild-type peptide
  basal NF-κB activity (luciferase reporter): enhanced
NF-κB
  TNFα-induced NF-κB activation (luciferase reporter): inhibited
Mouse bone marrow cells; listed as wild type
  inhibition of osteoclast differentiation (TRAP-positive multinucleated cells): dose-dependently inhibited
Mouse bone marrow cells; listed as wild-type
  inhibition of osteoclast differentiation (TRAP-positive multinucleated cells): dose dependent inhibition
